In patent US8455480B2, “Active agent combinations having insecticidal and acaricidal properties” (Bayer Cropscience AG, priority 2007, dated 2013):

Columns and labels:
[1] = system: Phaedon cochleariae larvae; assay: Phaedon cochleariae larvae test (sprayed cabbage leaves); conditions: for Destruction in % after 2 d: single active substance
[2] = system: Myzus persicae; assay: Myzus persicae test (spray on infested cabbage leaves); assay type: in vivo; conditions: single active substance
[3] = Phaedon cochleariae, in Brassica oleracea, 144 h, read-out: Destruction in % after 6 d

SMILES	pest or weed control at 100 g/ha [1, 3]	pest or weed control at 4 g/ha [1, 3]	Destruction in % after 6 d ([2]; 0.16 g/ha)	Destruction in % after 1 d ([2]; 0.16 g/ha)	further results
CN(Cc1cnc(Cl)c(F)c1)C1=CC(=O)OC1 [Compound (I-6), 4-{[(6-chloro-5-fluoropyrid-3-yl)methyl](methyl)amino}furan-2(5H)-one]	0%				Destruction in % after 2 d ([1]; 100 g/ha): 0%
CN/C(=N\[N+](=O)[O-])NCC1CCOC1 (stereo not drawn) [Dinotefuran]		0%			
C/C(=N\C#N)N(C)Cc1ccc(Cl)nc1 [Acetamiprid]					Destruction in % after 2 d ([1]; 4 g/ha): 0%; Destruction in % after 6 d ([2]; 0.032 g/ha): 0%
CN1COCN(Cc2cnc(Cl)s2)/C1=N/[N+](=O)[O-] [Thiamethoxam]		17%	30%		Destruction in % after 6 d ([2]; 0.032 g/ha): 0%
O=C1C=C(N(Cc2ccc(Cl)nc2)CC(F)F)CO1 [Compound (I-5), 4-{[(6-chloropyrid-3-yl)methyl](2,2-difluoroethyl)amino}furan-2(5H)-one]	50%				pest or weed control at 20 g/ha [1, 3]: 0%; Destruction in % after 2 d ([1]; 100 g/ha): 33%; Destruction in % after 6 d ([2]; 0.8 g/ha): 30%
N#C/N=C1\SCCN1Cc1ccc(Cl)nc1 [Thiacloprid]		17%	0%	20%	Destruction in % after 2 d ([1]; 4 g/ha): 0%
O=C1C=C(N(CCF)Cc2ccc(Cl)nc2)CO1 [Compound (I-4), 4-{[(6-chloropyrid-3-yl)methyl](2-fluoroethyl)amino}furan-2(5H)-one]	0%				Destruction in % after 1 d ([2]; 4 g/ha): 50%; Destruction in % after 6 d ([2]; 4 g/ha): 70%
O=[N+]([O-])/N=C1\NCCN1Cc1ccc(Cl)nc1 [Imidacloprid]		0%		20%	
CN/C(=N\[N+](=O)[O-])NCc1cnc(Cl)s1 [Clothianidin]		33%	10%	0%	
